The results in this text go back to ChEMBL document CHEMBL5108073, “Evolution of Potential Antimitotic Stapled Peptides from Multiple Helical Peptide Stretches of the Tubulin Heterodimer Interface: Helix-Mimicking Stapled Peptide Tubulin Inhibitors” (J Med Chem, 2022).

Activity calls are given as the source filed them. The calls are words filed in the database; no cut-off is given here. Numbered stars: 1 amine (or outer) side, 2 acyl side, 3 side chain; on linkers, the order of the positions; unused ones are H or OH. Bridge positions count the residues as written; N and C are the ends. Square brackets hold non-standard residues; d marks the D form. Peptide text beside a SMILES is read from it. Nle(6-ylidene) = O=C([C@H](CCCC=[*:3])N[*:1])[*:2]; Phe(4-Br) = N[C@@H](Cc1ccc(Br)cc1)C(=O)O; Phe(4-Cl) = N[C@@H](Cc1ccc(Cl)cc1)C(=O)O; Phe(4-F) = N[C@@H](Cc1ccc(F)cc1)C(=O)O; Phe(4-I) = N[C@@H](Cc1ccc(I)cc1)C(=O)O

The target in data set [1] is T1, Tubulin (Homo sapiens) (UniProt P68371+Q9H4B7+P0DPH7+P68366+Q13509+Q71U36+P04350+Q3ZCM7+P07437+P68363+Q9BQE3+Q6PEY2+Q13885+Q9BVA1+Q9BUF5). The data set is described as follows: Binding affinity to tubulin (unknown origin) assessed as association constant by SPR analysis. Format: protein-complex assay. (In general: SPR reads the build-up and loss of mass on a sensor chip optically.)

The target in data set [2] is Tubulin. The data set is described as follows: Binding affinity to tubulin (unknown origin) assessed as binding constant by SPR analysis. Format: protein-complex assay, Homo sapiens.
Data set [3] concerns MCF7. The data set is described as follows: Cytotoxicity against human MCF7 cells assessed as reduction in cell viability incubated for 24 hrs by MTT assay. Format: functional, cell-based. To be noted: MCF7, 24 h. (In general: Tetrazolium dyes change colour on reduction, which living cells bring about.)
Data set [4] in a line: Toxicity in C57BL/6J mouse implanted with B16F10 cells assessed as change in body weight at 5 mg/kg, ip administered for 14 days. It is filed as organism-based, B16-F10. To be noted: in vivo, 336 h, time 14 day.
A short description of data set [5]: Drug uptake in human MCF7 cells at 4 uM incubated for 24 hrs by flow cytometry analysis. Format: ADME, cell-based. To be noted: mcf7, 24 h. In general terms: In flow cytometry, cells or beads pass a laser one at a time.
The test system of data set [6] is MCF7. The data set is described as follows: Induction of apoptosis in human MCF7 cells assessed as viable cells by annexin V FITC and propidium iodide staining based flow cytometry (reference value: 100 %). Format: functional.
Data set [7] has as its system B16-F10. The data set is described as follows: Antitumor activity against mouse B16F10 cells implanted in C57BL/6J mouse assessed as tumor cell damage at 5 mg/kg, ip administered for 14 days by caliper method. Format: functional, organism-based. The settings on record: time 14.0 day.
Data set [8] has as its system B16-F10. The data set is described as follows: Antitumor activity against mouse B16F10 cells implanted in C57BL/6J mouse assessed as tumor muscle damage at 5 mg/kg, ip administered for 14 days by caliper method. Format: functional, organism-based. To be noted: time 14.0 day.
Data set [9] concerns MCF7. The data set is described as follows: Induction of cell cycle arrest in human MCF7 cells assessed as accumulation of cells at G2/M phase. It is filed as functional, cell-based.
Data set [10] has as its system MCF7. The data set is described as follows: Induction of apoptosis in human MCF7 cells assessed as late apoptotic cells by annexin V FITC and propidium iodide staining based flow cytometry (reference value: 0 %). Format: functional.
The target in data set [11] is Tubulin. The data set is described as follows: Binding affinity to tubulin (unknown origin) assessed as binding constant by ITC analysis. It is filed as protein-complex assay, Homo sapiens.
Data set [12] concerns the target Tubulin. The data set is described as follows: Binding affinity to tubulin (unknown origin) assessed as binding constant by tryptophan quenching analysis. Format: protein-complex assay, Homo sapiens.
In data set [13] the test system is MCF7. The data set is described as follows: Induction of apoptosis in human MCF7 cells assessed as upregulation of Mad2 protein expression by Western blot analysis. Format: functional, cell-based.
Data set [14] has as its system MCF7. The data set is described as follows: Induction of apoptosis in human MCF7 cells assessed as upregulation of p53 protein expression by Western blot analysis. It is filed as functional, cell-based.
Data set [15] has as its system MCF7. The data set is described as follows: Drug uptake in human MCF7 cells at 4 uM incubated for 24 hrs by fluorescence microscopic analysis. Format: functional, cell-based.
Data set [16] relates to MCF7. The data set is described as follows: Antitumor activity in human MCF7 cells cultured as 3D spheroids assessed as decrease in spheroid volume at 4 uM measured up to 7 days by inverted microscopic analysis. The settings on record: time <= 7.0 day. Format: functional, cell-based.
Data set [17] has as its system MCF7. The data set is described as follows: Induction of apoptosis in human MCF7 cells assessed as early apoptotic cells by annexin V FITC and propidium iodide staining based flow cytometry (reference value: 0 %). Format: functional.
The subject of data set [18] is B16-F10. The data set is described as follows: Antitumor activity against mouse B16-F10 cells implanted in C57BL/6J mouse assessed as reduction in tumor size at 5 mg/kg, ip administered for 14 days by caliper method. Format: functional, organism-based. The settings on record: time 14.0 day.
The target of data set [19] is T1, Tubulin (Homo sapiens). The data set is described as follows: Binding affinity to microtubule in human MCF7 cells at 20 uM after 2 hrs by Hoechst 33258 staining based fluorescence microscopy analysis. It is filed as cell-based.
For data set [20], the system named is B16-F10. The data set is described as follows: Antitumor activity against mouse B16F10 cells implanted in C57BL/6J mouse assessed as blood vessels damage at 5 mg/kg, ip administered for 14 days by caliper method. To be noted: time 14.0 day. It is filed as functional, organism-based.
Data set [21] concerns MCF7. The data set is described as follows: Induction of apoptosis in human MCF7 cells assessed as upregulation of p21 protein expression by Western blot analysis. Format: functional, cell-based.
Data set [22] concerns the target T1, Tubulin (Homo sapiens). The data set is described as follows: Inhibition of tubulin polymerization (unknown origin) at 10 uM by turbidity assay. Format: protein-complex assay.
The test system of data set [23] is MCF7. The data set is described as follows: Induction of apoptosis in human MCF7 cells assessed as necrotic cells by annexin V FITC and propidium iodide staining based flow cytometry (reference value: 0 %). Format: functional.
Data set [24] can be described thus: Metabolic stability in human plasma at 200 uM incubated for 24 hrs by MALDI-MS analysis. Format: ADME, cell-free.
In data set [25] the test system is MCF7. The data set is described as follows: Induction of apoptosis in human MCF7 cells assessed as upregulation of BubR1 protein expression by Western blot analysis. Format: functional, cell-based.
The target of data set [26] is T1, Tubulin (Homo sapiens). The data set is described as follows: Inhibition of tubulin polymerization (unknown origin) at 10 uM by DAPI staining based assay. It is filed as protein-complex assay.
Data set [27] deals with T1, Tubulin (Homo sapiens). The data set is described as follows: Induction of microtubule depolymerization in human MCF7 cells. It is filed as cell-based.

By Kd is commonly meant the constant that tells how readily two partners part at equilibrium. As usually defined, the IC50 is the concentration at which inhibition is half-maximal. Take `CC(=O)N[C@@H](Cc1ccccc1)C(=O)N[C@@H](CCCNC(=N)N)C(=O)N[C@@H](CCCNC(=N)N)C(=O)N[C@@H](CCCCN)C(=O)N[C@@H](C)C(=O)N[C@@H](Cc1ccc(Br)cc1)C(=O)N[C@H]1CCC/C=C\CCC[C@@H](C(=O)NCC(=O)O)NC(=O)[C@H](Cc2ccc(O)cc2)NC(=O)[C@H](Cc2c[nH]c3ccccc23)NC(=O)[C@H](Cc2cnc[nH]2)NC1=O` (Ac-FRRKA[Phe(4-Br)][Nle(6-ylidene)]HWY[Nle(6-ylidene)]G-OH; staple (Z) 7-11): the Ka in [1] was 1.9 10^4/M/s. Also, the Kd in data set [2] was 4 µM. The IC50 in data set [3] is 33.8 µM.
`CC(=O)N[C@@H](Cc1ccccc1)C(=O)N[C@@H](CCCNC(=N)N)C(=O)N[C@@H](CCCNC(=N)N)C(=O)N[C@@H](CCCCN)C(=O)N[C@@H](C)C(=O)N[C@@H](Cc1ccc(Cl)cc1)C(=O)N[C@H]1CCC/C=C\CCC[C@@H](C(=O)NCC(=O)O)NC(=O)[C@H](Cc2ccc(O)cc2)NC(=O)[C@H](Cc2c[nH]c3ccccc23)NC(=O)[C@H](Cc2cnc[nH]2)NC1=O` (Ac-FRRKA[Phe(4-Cl)][Nle(6-ylidene)]HWY[Nle(6-ylidene)]G-OH; staple (Z) 7-11): in data set [1], the Ka is 2.05 10^4/M/s. Also, the equilibrium dissociation constant (Kd) in [2] was 3.3 µM. Further, in data set [3], the IC50 was found to be 18.7 µM.
Regarding `CC(=O)N[C@@H](Cc1ccccc1)C(=O)N[C@@H](CCCNC(=N)N)C(=O)N[C@@H](CCCNC(=N)N)C(=O)N[C@@H](CCCCN)C(=O)N[C@@H](C)C(=O)N[C@@H](Cc1ccc(F)cc1)C(=O)N[C@H]1CCC/C=C\CCC[C@@H](C(=O)NCC(=O)O)NC(=O)[C@H](Cc2ccc(O)cc2)NC(=O)[C@H](Cc2c[nH]c3ccccc23)NC(=O)[C@H](Cc2c[nH]cn2)NC1=O` (Ac-FRRKA[Phe(4-F)][Nle(6-ylidene)]HWY[Nle(6-ylidene)]G-OH; staple (Z) 7-11), the Activity entry is “Non-Toxic” in data set [4]; 12.2% in [6]; 58% in data set [10]; 23.5% in [17]; 6.3% in [23]. Besides, the Drug uptake entry in data set [5] is listed as “Active”. In addition, the result in data set [7], in data set [8], in data set [9], in data set [13], in [14] and in data set [15] was Active. In addition, the result in [16], in [18], in data set [19], in [20], in data set [21] and in [25] was Active. The result in data set [27] was Active. Also, the Ka in [1] is 2.14 10^4/M/s; in [11] it was 45200 M⁻¹; in data set [12], 46300 M⁻¹. For the same compound, in data set [2], the Kd was found to be 3.6 µM. Further, the IC50 in [3] was found to be 3.71 µM. Moreover, the inhibition result in data set [22] and in data set [26] was “Active” in each case. The Stability result in data set [24] was “Stable”.
On to `CC(=O)N[C@@H](Cc1ccccc1)C(=O)N[C@@H](CCCNC(=N)N)C(=O)N[C@@H](CCCNC(=N)N)C(=O)N[C@@H](CCCCN)C(=O)N[C@@H](C)C(=O)N[C@@H](Cc1ccc(I)cc1)C(=O)N[C@H]1CCC/C=C\CCC[C@@H](C(=O)NCC(=O)O)NC(=O)[C@H](Cc2ccc(O)cc2)NC(=O)[C@H](Cc2c[nH]c3ccccc23)NC(=O)[C@H](Cc2cnc[nH]2)NC1=O` (Ac-FRRKA[Phe(4-I)][Nle(6-ylidene)]HWY[Nle(6-ylidene)]G-OH; staple (Z) 7-11), for which the Kd in data set [2] turned out to be 4.1 µM. Further, the IC50 in data set [3] came to 52.3 µM.
Regarding `CC(C)C[C@H](NC(=O)[C@H](Cc1ccccc1)NC(=O)[C@H](C)NC(=O)[C@H](CCCCN)NC(=O)[C@H](CCCNC(=N)N)NC(=O)[C@H](CCCNC(=N)N)NC(=O)[C@@H](N)Cc1ccccc1)C(=O)N[C@@H](Cc1c[nH]cn1)C(=O)N[C@@H](Cc1c[nH]c2ccccc12)C(=O)N[C@@H](Cc1ccc(O)cc1)C(=O)N[C@H](C(=O)NCC(=O)O)[C@@H](C)O` (H-FRRKAFLHWYTG-OH), the 50% inhibitory concentration (IC50) in data set [3] was determined as 272 µM. Further, the Stability entry in data set [24] is reported as “Unstable”.
Turning to `C[C@H](NC(=O)[C@H](CCCCN)NC(=O)[C@H](CCCNC(=N)N)NC(=O)[C@H](CCCNC(=N)N)NC(=O)[C@@H](N)Cc1ccccc1)C(=O)N[C@@H](Cc1ccccc1)C(=O)N[C@H]1CCC/C=C\CCC[C@@H](C(=O)NCC(=O)O)NC(=O)[C@H](Cc2ccc(O)cc2)NC(=O)[C@H](Cc2c[nH]c3ccccc23)NC(=O)[C@H](Cc2c[nH]cn2)NC1=O` (H-FRRKAF[Nle(6-ylidene)]HWY[Nle(6-ylidene)]G-OH; staple (Z) 7-11), the Drug uptake entry in data set [5] was “Active”. Also, the Activity in data set [6] was 31.8%; in data set [10], 24.2%; in data set [17], 0.5%; in data set [23], 43.6%. Also, the figures for the Ka in data set [1] and in data set [11] were 1.43 10^4/M/s and 10500 M⁻¹, respectively. For the same compound, the result in [9], in data set [13], in [14], in [15], in data set [21] and in data set [25] was Active. Further, in data set [27], the result was Active. For the same compound, the Kd in data set [2] came out at 7 µM. In addition, the IC50 in [3] came to 37.2 µM. For the same compound, in data set [24], the Stability entry is on record as “Stable”.
